Laboratory results from patent publication US20060276416A1, “Methods and compositions for treating flushing and drug induced weight gain” (Sirtris Pharmaceuticals, Inc., priority 2005, published 2006).
Entries after “also recorded” stand apart in the source; their conditions may differ.

Experiments:
[1] = tested on: 3T3-L1 cells; assay: Adipocyte differentiation and fat content, Oil Red O; type: cell-based
Method: (§1) After 10 days of differentiation, cells were fixed and stained with Oil red O. Oil red 0 was extracted from stained cells and quantified by measuring absorbance at 520 nm. B. Oil red 0 quantitation is shown as fold change relative to the 3T3-L1 sample treated with 0 μM resvratrol.
(§2) After 10 days of differentiation, fat content was assessed by Oil Red O staining, as described below. […] The results in NIH3T3 cells confirm the results obtained in C. elegans.
(§3) 3T3-L1 and NIH3T3 cells were maintained in DMEM plus 10% calf serum. Adipocyte differentiation of 3T3-L1 cells was performed as described previously (MacDougald, O. A. and Lane, M. D. (1995). Transcriptional regulation of gene expression during adipocyte differentiation. Annu. Rev. Biochem. 64, 345-373). NIH3T3 cells were induced to form adipocytes under the same conditions as 3T3-L1 cells, but with 6 days of treatment with insulin, dexamethasone, and isobutylmethylxanthine in 10% fetal calf serum after cells reach confluence. The staining of adipocytes with Oil Red-O and quantitation was performed as described previously (Ramirez-Zacarias J L, Castro-Munozledo F, Kuri-Harcuch W. Histochemistry. 1992 97(6): 493-7).

[2] = tested on: NIH3T3 cells; assay: as above; type: cell-based; settings: 10 days of differentiation
Method: as §1, §2, §3

## Oc1ccc(/C=C/c2cc(O)cc(O)c2)cc1 [Resveratrol, 3,5,4′-Trihydroxy-trans-stilbene]
[1]; 10 days of differentiation
  Concentrations that decreased the quantity of cellular fat: ≥ 25 µM
[1]; resveratrol-treated cells
  PPARγ expression: did not show an increase; also recorded: marked decrease
[2]
  Concentrations that decreased the quantity of cellular fat: ≥ 25 µM
